According to patent US20250352512A2, “C4-S[…] DERIVATIVES AND METHODS OF USING” (priority 2022, published 2025):

biological target: T1, ADRA1A (Homo sapiens, UniProt P35348); assay: cell-based; conditions: ADRA1A, GPCR, AGN (agonist); read-out: EC50
T1 sequence (P35348 1-466): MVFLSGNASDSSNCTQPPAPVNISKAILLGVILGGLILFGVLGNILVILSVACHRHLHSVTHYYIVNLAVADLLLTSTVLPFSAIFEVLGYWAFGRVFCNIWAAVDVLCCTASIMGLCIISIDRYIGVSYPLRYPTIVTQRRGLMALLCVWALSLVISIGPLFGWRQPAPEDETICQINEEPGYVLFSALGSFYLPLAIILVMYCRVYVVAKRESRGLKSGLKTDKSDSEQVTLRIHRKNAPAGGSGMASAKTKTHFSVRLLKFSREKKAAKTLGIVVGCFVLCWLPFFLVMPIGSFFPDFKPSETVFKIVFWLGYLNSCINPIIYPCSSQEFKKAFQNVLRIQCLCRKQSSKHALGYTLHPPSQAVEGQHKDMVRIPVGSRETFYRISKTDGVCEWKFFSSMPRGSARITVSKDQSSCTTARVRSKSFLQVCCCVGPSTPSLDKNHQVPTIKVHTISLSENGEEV

| SMILES | EC50 |
| --- | --- |
| CN(C)CCc1c[nH]c2cccc(OC(=O)OCC3CC3)c12 [B(III)] | > 100 µM |
| CCCCC(=O)OCOc1cccc2[nH]cc(CCN(C)C)c12 [D(III)] | > 100 µM |
| CCCC(=O)OCOc1cccc2[nH]cc(CCN(C)C)c12 [D(IV)] | > 100 µM |

biological target: T2, OPRD1 (Homo sapiens, UniProt P41143); assay: cell-based; conditions: OPRD1, GPCR, ANT (antagonist); read-out: IC50
T2 sequence (P41143 whole entry): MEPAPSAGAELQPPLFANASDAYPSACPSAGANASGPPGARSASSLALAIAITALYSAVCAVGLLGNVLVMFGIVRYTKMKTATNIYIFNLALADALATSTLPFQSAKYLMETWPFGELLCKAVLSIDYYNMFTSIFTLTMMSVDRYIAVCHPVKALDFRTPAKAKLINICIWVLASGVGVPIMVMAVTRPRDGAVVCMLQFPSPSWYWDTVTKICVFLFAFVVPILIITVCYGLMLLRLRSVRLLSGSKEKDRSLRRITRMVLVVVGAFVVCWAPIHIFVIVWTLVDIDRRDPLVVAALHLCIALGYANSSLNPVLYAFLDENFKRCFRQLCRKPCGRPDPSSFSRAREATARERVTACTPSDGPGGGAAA

| SMILES | IC50 |
| --- | --- |
| CN(C)CCc1c[nH]c2cccc(OC(=O)OCC3CC3)c12 [B(III)] | > 100 µM |
| CCCCC(=O)OCOc1cccc2[nH]cc(CCN(C)C)c12 [D(III)] | > 100 µM |
| CCCC(=O)OCOc1cccc2[nH]cc(CCN(C)C)c12 [D(IV)] | > 100 µM |

biological target: T3, HTR1A (5-HT1A) (Homo sapiens, UniProt P08908); assay: cell-based; conditions: HTR1A, GPCR, AGN (agonist); read-out: EC50
T3 sequence (P08908 1-422): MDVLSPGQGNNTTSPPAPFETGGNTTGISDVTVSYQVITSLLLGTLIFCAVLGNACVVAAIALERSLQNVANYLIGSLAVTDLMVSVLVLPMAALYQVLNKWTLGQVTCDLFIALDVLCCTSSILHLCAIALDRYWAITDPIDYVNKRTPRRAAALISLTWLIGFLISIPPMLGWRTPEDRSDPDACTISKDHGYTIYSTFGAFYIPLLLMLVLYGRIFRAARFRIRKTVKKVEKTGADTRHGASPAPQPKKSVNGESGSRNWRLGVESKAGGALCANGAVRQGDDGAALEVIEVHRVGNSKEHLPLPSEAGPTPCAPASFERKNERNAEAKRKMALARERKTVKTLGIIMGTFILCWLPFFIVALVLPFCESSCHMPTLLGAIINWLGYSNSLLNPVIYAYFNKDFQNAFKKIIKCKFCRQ

| SMILES | EC50 |
| --- | --- |
| CN(C)CCc1c[nH]c2cccc(OC(=O)OCC3CC3)c12 [B(III)] | 7.45 µM |
| CCCCC(=O)OCOc1cccc2[nH]cc(CCN(C)C)c12 [D(III)] | 28.7 µM |
| CCCC(=O)OCOc1cccc2[nH]cc(CCN(C)C)c12 [D(IV)] | 18 µM |

biological target: T4, HTR2B (5-HT2B) (Homo sapiens, UniProt P41595); assay: cell-based; conditions: HTR2B, GPCR, AGN (agonist); read-out: EC50
T4 sequence (P41595 whole entry): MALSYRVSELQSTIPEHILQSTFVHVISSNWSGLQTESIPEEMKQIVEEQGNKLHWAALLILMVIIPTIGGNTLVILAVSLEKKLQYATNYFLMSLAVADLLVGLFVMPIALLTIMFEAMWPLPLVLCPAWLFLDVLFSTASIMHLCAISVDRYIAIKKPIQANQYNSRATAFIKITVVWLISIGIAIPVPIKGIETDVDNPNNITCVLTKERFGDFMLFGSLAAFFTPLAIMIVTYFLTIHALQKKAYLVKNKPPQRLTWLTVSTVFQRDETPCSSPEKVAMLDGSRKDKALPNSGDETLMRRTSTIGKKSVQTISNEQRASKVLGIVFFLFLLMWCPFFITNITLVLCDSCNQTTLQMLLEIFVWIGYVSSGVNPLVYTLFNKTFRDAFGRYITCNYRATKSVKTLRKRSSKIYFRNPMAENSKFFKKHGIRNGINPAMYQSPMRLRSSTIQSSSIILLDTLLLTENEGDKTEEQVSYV

| SMILES | EC50 |
| --- | --- |
| CN(C)CCc1c[nH]c2cccc(OC(=O)OCC3CC3)c12 [B(III)] | > 100 µM |
| CCCCC(=O)OCOc1cccc2[nH]cc(CCN(C)C)c12 [D(III)] | > 100 µM |
| CCCC(=O)OCOc1cccc2[nH]cc(CCN(C)C)c12 [D(IV)] | > 100 µM |

biological target: T5, DRD1 (Homo sapiens, UniProt P21728); assay: cell-based; conditions: DRD1, GPCR, AGN (agonist); read-out: EC50
T5 sequence (P21728 whole entry): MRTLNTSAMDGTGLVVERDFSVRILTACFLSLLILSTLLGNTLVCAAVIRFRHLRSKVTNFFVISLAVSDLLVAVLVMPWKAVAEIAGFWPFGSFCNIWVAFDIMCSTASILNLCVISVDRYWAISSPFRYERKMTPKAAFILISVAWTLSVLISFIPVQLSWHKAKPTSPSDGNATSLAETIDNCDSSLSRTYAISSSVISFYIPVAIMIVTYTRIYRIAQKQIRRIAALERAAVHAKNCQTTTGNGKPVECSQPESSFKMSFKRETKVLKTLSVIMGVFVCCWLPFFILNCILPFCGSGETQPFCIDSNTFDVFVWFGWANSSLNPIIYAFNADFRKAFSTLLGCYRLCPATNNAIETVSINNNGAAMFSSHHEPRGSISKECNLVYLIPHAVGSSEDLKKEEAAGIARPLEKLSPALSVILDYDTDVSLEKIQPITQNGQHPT

| SMILES | EC50 |
| --- | --- |
| CN(C)CCc1c[nH]c2cccc(OC(=O)OCC3CC3)c12 [B(III)] | > 100 µM |
| CCCCC(=O)OCOc1cccc2[nH]cc(CCN(C)C)c12 [D(III)] | > 100 µM |
| CCCC(=O)OCOc1cccc2[nH]cc(CCN(C)C)c12 [D(IV)] | > 100 µM |

biological target: T6, ADRA2A (Homo sapiens, UniProt P08913); assay: cell-based; conditions: ADRA2A, GPCR, AGN (agonist); read-out: EC50
T6 sequence (P08913 1-465): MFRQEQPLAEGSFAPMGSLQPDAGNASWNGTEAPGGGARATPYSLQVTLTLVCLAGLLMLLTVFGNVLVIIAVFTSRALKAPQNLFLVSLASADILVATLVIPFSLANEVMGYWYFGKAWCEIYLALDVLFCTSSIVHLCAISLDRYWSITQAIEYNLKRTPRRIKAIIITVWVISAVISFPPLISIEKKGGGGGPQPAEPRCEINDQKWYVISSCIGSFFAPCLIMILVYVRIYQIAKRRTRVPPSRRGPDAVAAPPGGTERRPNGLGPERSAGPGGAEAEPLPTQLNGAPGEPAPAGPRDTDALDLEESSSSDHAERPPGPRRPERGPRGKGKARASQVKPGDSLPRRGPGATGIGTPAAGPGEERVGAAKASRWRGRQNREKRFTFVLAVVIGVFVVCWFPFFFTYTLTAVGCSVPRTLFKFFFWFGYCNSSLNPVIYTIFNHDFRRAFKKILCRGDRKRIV

| SMILES | EC50 |
| --- | --- |
| CN(C)CCc1c[nH]c2cccc(OC(=O)OCC3CC3)c12 [B(III)] | > 100 µM |
| CCCCC(=O)OCOc1cccc2[nH]cc(CCN(C)C)c12 [D(III)] | > 100 µM |
| CCCC(=O)OCOc1cccc2[nH]cc(CCN(C)C)c12 [D(IV)] | > 100 µM |

biological target: T4, HTR2B (5-HT2B); assay: cell-based; conditions: HTR2B, GPCR, ANT (antagonist); read-out: IC50

| SMILES | IC50 |
| --- | --- |
| CN(C)CCc1c[nH]c2cccc(OC(=O)OCC3CC3)c12 [B(III)] | 0.0215 µM |
| CCCCC(=O)OCOc1cccc2[nH]cc(CCN(C)C)c12 [D(III)] | 0.301 µM |
| CCCC(=O)OCOc1cccc2[nH]cc(CCN(C)C)c12 [D(IV)] | 0.512 µM |

biological target: NMDAR (Homo sapiens, UniProt Q05586+Q13224); assay: cell-based; conditions: NMDAR, ion channel, OP (opener); read-out: EC50
Sequence (Q13224 27-1484, other chains not shown): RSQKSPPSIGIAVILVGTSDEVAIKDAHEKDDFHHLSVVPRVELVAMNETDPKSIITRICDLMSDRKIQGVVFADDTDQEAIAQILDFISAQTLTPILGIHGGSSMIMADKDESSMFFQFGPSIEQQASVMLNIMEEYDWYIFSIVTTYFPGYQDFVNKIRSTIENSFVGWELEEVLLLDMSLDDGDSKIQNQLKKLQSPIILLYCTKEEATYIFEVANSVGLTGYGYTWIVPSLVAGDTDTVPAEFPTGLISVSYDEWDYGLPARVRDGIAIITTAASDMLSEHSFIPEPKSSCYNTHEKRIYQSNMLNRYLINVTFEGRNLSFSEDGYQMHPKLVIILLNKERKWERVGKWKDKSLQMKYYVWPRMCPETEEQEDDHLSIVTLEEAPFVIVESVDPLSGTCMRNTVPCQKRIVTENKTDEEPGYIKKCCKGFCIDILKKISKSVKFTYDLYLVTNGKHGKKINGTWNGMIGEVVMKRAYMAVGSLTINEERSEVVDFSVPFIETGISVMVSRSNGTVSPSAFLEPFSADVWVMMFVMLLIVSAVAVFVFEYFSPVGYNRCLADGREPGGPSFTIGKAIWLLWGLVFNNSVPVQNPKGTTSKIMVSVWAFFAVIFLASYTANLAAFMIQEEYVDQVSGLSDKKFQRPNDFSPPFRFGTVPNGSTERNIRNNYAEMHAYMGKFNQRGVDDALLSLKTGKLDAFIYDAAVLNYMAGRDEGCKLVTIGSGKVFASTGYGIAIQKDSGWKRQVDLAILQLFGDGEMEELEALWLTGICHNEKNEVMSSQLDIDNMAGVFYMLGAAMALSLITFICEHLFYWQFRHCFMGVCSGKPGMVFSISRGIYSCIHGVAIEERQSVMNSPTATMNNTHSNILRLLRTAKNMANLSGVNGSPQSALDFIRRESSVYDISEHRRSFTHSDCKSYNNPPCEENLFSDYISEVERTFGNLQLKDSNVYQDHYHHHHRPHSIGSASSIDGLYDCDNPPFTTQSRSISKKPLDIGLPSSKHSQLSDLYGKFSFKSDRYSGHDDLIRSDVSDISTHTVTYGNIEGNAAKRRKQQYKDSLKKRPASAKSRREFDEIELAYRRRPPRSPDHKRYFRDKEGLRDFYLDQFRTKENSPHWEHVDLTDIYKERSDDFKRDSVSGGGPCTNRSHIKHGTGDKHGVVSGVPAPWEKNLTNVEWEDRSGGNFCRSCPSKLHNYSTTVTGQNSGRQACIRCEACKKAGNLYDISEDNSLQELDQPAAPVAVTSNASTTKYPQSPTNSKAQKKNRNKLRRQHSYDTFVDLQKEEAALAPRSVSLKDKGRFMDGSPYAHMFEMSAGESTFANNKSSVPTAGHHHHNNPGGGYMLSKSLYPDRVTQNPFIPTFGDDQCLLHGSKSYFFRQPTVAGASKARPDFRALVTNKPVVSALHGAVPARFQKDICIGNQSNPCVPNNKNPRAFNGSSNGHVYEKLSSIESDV

| SMILES | EC50 |
| --- | --- |
| CN(C)CCc1c[nH]c2cccc(OC(=O)OCC3CC3)c12 [B(III)] | > 100 µM |
| CCCCC(=O)OCOc1cccc2[nH]cc(CCN(C)C)c12 [D(III)] | > 100 µM |
| CCCC(=O)OCOc1cccc2[nH]cc(CCN(C)C)c12 [D(IV)] | > 100 µM |

biological target: T7, HTR2A (Homo sapiens, UniProt P28223); assay: cell-based; conditions: HTR2A, GPCR, ANT (antagonist); read-out: IC50
T7 sequence (P28223 whole entry): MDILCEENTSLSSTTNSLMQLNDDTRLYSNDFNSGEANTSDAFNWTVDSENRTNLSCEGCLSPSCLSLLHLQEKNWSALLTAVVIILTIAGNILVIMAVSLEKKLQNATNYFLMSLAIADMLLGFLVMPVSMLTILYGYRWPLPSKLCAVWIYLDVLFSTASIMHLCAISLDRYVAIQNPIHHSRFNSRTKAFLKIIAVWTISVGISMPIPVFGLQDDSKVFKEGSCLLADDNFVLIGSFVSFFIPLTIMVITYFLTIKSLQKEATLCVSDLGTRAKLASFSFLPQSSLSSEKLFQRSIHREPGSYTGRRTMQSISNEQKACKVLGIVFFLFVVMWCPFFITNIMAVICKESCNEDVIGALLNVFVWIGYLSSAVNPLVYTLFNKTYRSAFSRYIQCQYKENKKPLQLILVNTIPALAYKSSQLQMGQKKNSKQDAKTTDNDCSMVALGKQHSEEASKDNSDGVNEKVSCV

| SMILES | IC50 |
| --- | --- |
| CN(C)CCc1c[nH]c2cccc(OC(=O)OCC3CC3)c12 [B(III)] | 0.296 µM |
| CCCCC(=O)OCOc1cccc2[nH]cc(CCN(C)C)c12 [D(III)] | 0.587 µM |
| CCCC(=O)OCOc1cccc2[nH]cc(CCN(C)C)c12 [D(IV)] | 1.27 µM |

biological target: T5, DRD1; assay: cell-based; conditions: DRD1, GPCR, ANT (antagonist); read-out: IC50

| SMILES | IC50 |
| --- | --- |
| CN(C)CCc1c[nH]c2cccc(OC(=O)OCC3CC3)c12 [B(III)] | 13.3 µM |
| CCCCC(=O)OCOc1cccc2[nH]cc(CCN(C)C)c12 [D(III)] | 32.2 µM |
| CCCC(=O)OCOc1cccc2[nH]cc(CCN(C)C)c12 [D(IV)] | 49.5 µM |

biological target: T8, 5-HT1A receptor (Homo sapiens, UniProt P08908); assay: not given; type: cell-based; conditions: comparison of +5-HT1A with -5-HT1A cultures, 4 mM forskolin
T8 construct: host or cells: CHO-K1
T8 sequence (P08908 1-422): T3 sequence (P08908 1-422)

| SMILES | 5-HT1A receptor modulation |
| --- | --- |
| CN(C)CCc1c[nH]c2cccc(OC(=O)OCC3CC3)c12 [B(III)] | indicates receptor modulation |
| CCCCC(=O)OCOc1cccc2[nH]cc(CCN(C)C)c12 [D(III)] | suggests no receptor modulation |

biological target: T3, HTR1A (5-HT1A); assay: cell-based; conditions: HTR1A, GPCR, ANT (antagonist); read-out: IC50

| SMILES | IC50 |
| --- | --- |
| CN(C)CCc1c[nH]c2cccc(OC(=O)OCC3CC3)c12 [B(III)] | > 100 µM |
| CCCCC(=O)OCOc1cccc2[nH]cc(CCN(C)C)c12 [D(III)] | > 100 µM |
| CCCC(=O)OCOc1cccc2[nH]cc(CCN(C)C)c12 [D(IV)] | > 100 µM |

biological target: DRD2S (Homo sapiens, UniProt P14416); assay: cell-based; conditions: DRD2S, GPCR, ANT (antagonist); read-out: IC50
Sequence (P14416 1-414 isoform P14416-2): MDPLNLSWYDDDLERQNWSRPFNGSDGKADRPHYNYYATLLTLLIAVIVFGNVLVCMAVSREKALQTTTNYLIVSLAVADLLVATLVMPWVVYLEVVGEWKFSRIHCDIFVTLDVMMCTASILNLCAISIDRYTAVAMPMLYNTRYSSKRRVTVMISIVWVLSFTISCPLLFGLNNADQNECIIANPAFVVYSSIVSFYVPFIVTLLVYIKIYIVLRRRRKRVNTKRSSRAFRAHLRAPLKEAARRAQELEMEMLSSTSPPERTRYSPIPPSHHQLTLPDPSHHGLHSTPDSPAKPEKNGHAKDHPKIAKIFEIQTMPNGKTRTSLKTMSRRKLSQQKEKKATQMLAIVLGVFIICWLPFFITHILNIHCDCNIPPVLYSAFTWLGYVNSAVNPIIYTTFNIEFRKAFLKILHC

| SMILES | IC50 |
| --- | --- |
| CN(C)CCc1c[nH]c2cccc(OC(=O)OCC3CC3)c12 [B(III)] | > 100 µM |
| CCCCC(=O)OCOc1cccc2[nH]cc(CCN(C)C)c12 [D(III)] | > 100 µM |
| CCCC(=O)OCOc1cccc2[nH]cc(CCN(C)C)c12 [D(IV)] | > 100 µM |

biological target: T9, 5-HT2A receptor (5-HT2AR) (Mus musculus, UniProt P35363); assay: Drug-induced Head Twitch Response (HTR) in mice; type: in vivo; conditions: C57BL/6-Elite mice, i.p. 1 mg/kg, 15-to-30-minute window following administration
T9 construct: tissue Charles River; host or cells: living C57BL/6-Elite mice (neuronal receptor)

| SMILES | incidences of Head Twitch Response (HTR) relative to vehicle |
| --- | --- |
| CN(C)CCc1c[nH]c2cccc(OC(=O)OCC3CC3)c12 [B(III)] | Elevated incidences of HTR |
| CCCCC(=O)OCOc1cccc2[nH]cc(CCN(C)C)c12 [D(III)] | Elevated incidences of HTR |

biological target: DAT (Homo sapiens, UniProt Q01959); assay: cell-based; conditions: DAT, transporter, BL (blocker); read-out: IC50
Sequence (Q01959 whole entry): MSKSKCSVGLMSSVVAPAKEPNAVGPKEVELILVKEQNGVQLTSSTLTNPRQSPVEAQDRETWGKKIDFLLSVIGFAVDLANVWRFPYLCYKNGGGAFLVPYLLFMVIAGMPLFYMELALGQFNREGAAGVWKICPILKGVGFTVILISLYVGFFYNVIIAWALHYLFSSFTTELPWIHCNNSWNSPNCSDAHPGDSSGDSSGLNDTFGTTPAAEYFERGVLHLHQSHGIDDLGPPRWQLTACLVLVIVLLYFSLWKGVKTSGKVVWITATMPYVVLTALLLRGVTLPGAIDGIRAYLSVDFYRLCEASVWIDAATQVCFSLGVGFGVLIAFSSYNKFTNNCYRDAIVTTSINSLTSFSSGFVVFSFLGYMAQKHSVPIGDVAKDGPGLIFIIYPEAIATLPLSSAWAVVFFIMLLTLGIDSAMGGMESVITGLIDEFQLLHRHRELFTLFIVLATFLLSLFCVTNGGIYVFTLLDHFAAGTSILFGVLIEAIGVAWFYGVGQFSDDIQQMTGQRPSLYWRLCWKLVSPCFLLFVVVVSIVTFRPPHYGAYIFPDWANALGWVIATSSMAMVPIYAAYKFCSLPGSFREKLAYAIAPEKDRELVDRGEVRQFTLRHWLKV

| SMILES | IC50 |
| --- | --- |
| CN(C)CCc1c[nH]c2cccc(OC(=O)OCC3CC3)c12 [B(III)] | > 100 µM |
| CCCCC(=O)OCOc1cccc2[nH]cc(CCN(C)C)c12 [D(III)] | > 100 µM |
| CCCC(=O)OCOc1cccc2[nH]cc(CCN(C)C)c12 [D(IV)] | > 100 µM |

biological target: T7, HTR2A; assay: cell-based; conditions: HTR2A, GPCR, AGN (agonist); read-out: EC50

| SMILES | EC50 |
| --- | --- |
| CN(C)CCc1c[nH]c2cccc(OC(=O)OCC3CC3)c12 [B(III)] | > 100 µM |
| CCCCC(=O)OCOc1cccc2[nH]cc(CCN(C)C)c12 [D(III)] | > 100 µM |
| CCCC(=O)OCOc1cccc2[nH]cc(CCN(C)C)c12 [D(IV)] | > 100 µM |

biological target: T2, OPRD1; assay: cell-based; conditions: OPRD1, GPCR, AGN (agonist); read-out: EC50

| SMILES | EC50 |
| --- | --- |
| CN(C)CCc1c[nH]c2cccc(OC(=O)OCC3CC3)c12 [B(III)] | > 100 µM |
| CCCCC(=O)OCOc1cccc2[nH]cc(CCN(C)C)c12 [D(III)] | > 100 µM |
| CCCC(=O)OCOc1cccc2[nH]cc(CCN(C)C)c12 [D(IV)] | 53.2 µM |

biological target: HTR1B (5-HTR1B) (Homo sapiens, UniProt P28222); assay: cell-based; conditions: HTR1B, GPCR, ANT (antagonist); read-out: IC50
Sequence (P28222 whole entry): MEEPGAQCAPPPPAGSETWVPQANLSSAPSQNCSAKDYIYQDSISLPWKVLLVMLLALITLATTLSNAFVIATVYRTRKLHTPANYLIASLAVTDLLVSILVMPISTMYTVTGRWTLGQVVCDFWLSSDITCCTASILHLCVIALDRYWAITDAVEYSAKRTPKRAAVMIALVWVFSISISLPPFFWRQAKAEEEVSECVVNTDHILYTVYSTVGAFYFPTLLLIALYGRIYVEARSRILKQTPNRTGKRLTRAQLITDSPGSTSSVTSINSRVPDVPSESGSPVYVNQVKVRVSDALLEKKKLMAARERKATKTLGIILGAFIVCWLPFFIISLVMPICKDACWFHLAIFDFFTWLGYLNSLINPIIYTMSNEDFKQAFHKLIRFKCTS

| SMILES | IC50 |
| --- | --- |
| CN(C)CCc1c[nH]c2cccc(OC(=O)OCC3CC3)c12 [B(III)] | > 100 µM |
| CCCCC(=O)OCOc1cccc2[nH]cc(CCN(C)C)c12 [D(III)] | > 100 µM |
| CCCC(=O)OCOc1cccc2[nH]cc(CCN(C)C)c12 [D(IV)] | > 100 µM |

biological target: T1, ADRA1A; assay: cell-based; conditions: ADRA1A, GPCR, ANT (antagonist); read-out: IC50

| SMILES | IC50 |
| --- | --- |
| CN(C)CCc1c[nH]c2cccc(OC(=O)OCC3CC3)c12 [B(III)] | 12.6 µM |
| CCCCC(=O)OCOc1cccc2[nH]cc(CCN(C)C)c12 [D(III)] | 3.86 µM |
| CCCC(=O)OCOc1cccc2[nH]cc(CCN(C)C)c12 [D(IV)] | 12.9 µM |

biological target: T6, ADRA2A; assay: cell-based; conditions: ADRA2A, GPCR, ANT (antagonist); read-out: IC50

| SMILES | IC50 |
| --- | --- |
| CN(C)CCc1c[nH]c2cccc(OC(=O)OCC3CC3)c12 [B(III)] | > 100 µM |
| CCCCC(=O)OCOc1cccc2[nH]cc(CCN(C)C)c12 [D(III)] | > 100 µM |
| CCCC(=O)OCOc1cccc2[nH]cc(CCN(C)C)c12 [D(IV)] | > 100 µM |
